Starred links: 1 amine or outer side, 2 acyl side, 3 side chain; linkers in the order of their positions; H or OH if unused. Non-standard residues stand in square brackets, D forms with d. Residues, ends and D or L forms follow the SMILES beside them. Groups on a side chain read outwards from the residue. *: point of attachment. C20 diacid = O=C(O)CCCCCCCCCCCCCCCCCCC(=O)*; γGlu = O=C(O)[C@H](CCC(=O)[*:2])N[*:1]; AEEA = NCCOCCOCC(=O)O; Aib = CC(C)(N)C(=O)O
What was measured:
[1] = Body weight of diet-induced-obesity mice after subcutaneous administration; type: in vivo, C57BL/6 mice; details: for rate of body weight change: DIO mice, 100 nmol/kg s.c. every 3 days
Method: (§1) High-fat food-induced-obesity male C57BL/6 mice (weighing 35-55 g, aged 10-12 weeks, purchased from Shanghai Jiesijie Laboratory Animal Co., Ltd.) were tested. […] According to the experimental design, the body weight of each mouse was measured and recorded on day 0, day 3, day 6, and so on to day 27, the average body weight of each group of mice was calculated, and body weight change curves were plotted by taking the body weight on the first day as the standard. At the end, the fat and other visceral organs of each part of the mice were taken out and weighed, and the viscera/brain ratio for fat in each part of each mouse was calculated. The effect of the drug on the fat was determined by comparing the change in the viscera/brain ratio for fat of different parts of each group of mice.

[2] = Glucose metabolism level of db/db mice (fasting and random blood glucose, glycated hemoglobin); type: in vivo, C57BL/KsJ-db/db mice; details: for Glycated hemoglobin: end of experiment day 28, mean ± SD
Method: Each administration group had 10 db/db mice. According to the experimental design, tail vein blood was collected by needle pricking on days 0, 7, 14, 21, and 28 and determined for fasting blood glucose levels with a glucometer and glucose dipsticks, and the mice were fasted 6 h prior to the blood collection at each time point. Tail vein blood was collected by needle pricking on days 3, 10, 17, 24, and 27 and randomly determined for blood glucose levels with a glucometer. Finally, at the end of the experiment on day 28, all the animals in the administration groups were subjected to 2-5% isoflurane inhalation anesthesia, and 100 μL of whole blood was collected through the orbit of each mouse using an EDTA-K2 anticoagulation tube and used for the determination of glycated hemoglobin.

[3] = Viscera/brain ratio for fat mass in diet-induced-obesity mice; type: in vivo, C57BL/6 mice; details: DIO mice; for viscera/brain ratio for fat mass, Epididymal fat / viscera/brain ratio for fat mass, Inguinal fat / viscera/brain ratio for fat mass, Mesenteric fat / viscera/brain ratio for fat mass, Perirenal fat / viscera/brain ratio for fat mass, Scapular fat / viscera/brain ratio for fat mass, Subcutaneous fat: X ± s
Method: as §1

[4] = 10 nmol/kg s.c., Day 0, mean ± SD
[5] = 30 nmol/kg s.c., Day 0, mean ± SD
[6] = 100 nmol/kg s.c., Day 0, mean ± SD

CC[C@H](C)[C@H](NC(=O)[C@H](CCCCN)NC(=O)[C@H](CCC(=O)O)NC(=O)[C@H](CCCCNC(=O)COCCOCCNC(=O)COCCOCCNC(=O)CC[C@H](NC(=O)CCCCCCCCCCCCCCCCCCC(=O)O)C(=O)O)NC(=O)[C@H](Cc1ccc(O)cc1)NC(=O)[C@@H](NC(=O)[C@H](CO)NC(=O)[C@H](Cc1ccc(O)cc1)NC(=O)[C@H](CC(=O)O)NC(=O)[C@H](CO)NC(=O)[C@@H](NC(=O)[C@H](Cc1ccccc1)NC(=O)[C@@H](NC(=O)CNC(=O)[C@H](CCC(=O)O)NC(=O)C(C)(C)NC(=O)[C@@H](N)Cc1ccc(O)cc1)[C@@H](C)O)[C@@H](C)O)[C@@H](C)CC)C(=O)N[C@@H](C)C(=O)N[C@@H](C)C(=O)N[C@@H](CCC(N)=O)C(=O)N[C@@H](CCC(=O)O)C(=O)N[C@@H](Cc1ccccc1)C(=O)N[C@H](C(=O)N[C@@H](CC(N)=O)C(=O)N[C@@H](Cc1c[nH]c2ccccc12)C(=O)N[C@@H](CC(C)C)C(=O)N[C@@H](CC(C)C)C(=O)N[C@@H](C)C(=O)NCC(=O)NCC(=O)N1CCC[C@H]1C(=O)N[C@@H](CO)C(=O)N[C@@H](CO)C(=O)NCC(=O)N[C@@H](C)C(=O)N1CCC[C@H]1C(=O)N1CCC[C@H]1C(=O)N1CCC[C@H]1C(=O)N[C@@H](CO)C(N)=O)C(C)C [Compound 18#] (H-Y[Aib]EGTFTSDYSIYK([AEEA-AEEA-γGlu-C20 diacid])EKIAAQEFVNWLLAGGPSSGAPPPS-NH2)
rate of body weight change ([1]; day 10): −31.6% | rate of body weight change ([1]; day 11): −33.7% | rate of body weight change ([1]; day 12): −34.4% | rate of body weight change ([1]; day 13): −35.6% | rate of body weight change ([1]; day 14): −36.7% | rate of body weight change ([1]; day 15): −35.7% | rate of body weight change ([1]; day 17): −38.2% | rate of body weight change ([1]; day 18): −37.8% | rate of body weight change ([1]; day 19): −38.5% | rate of body weight change ([1]; day 20): −39% | rate of body weight change ([1]; day 21): −37.4% | rate of body weight change ([1]; day 22): −38.3% | rate of body weight change ([1]; day 23): −38% | rate of body weight change ([1]; day 24): −36.8% | rate of body weight change ([1]; day 25): −38.6% | rate of body weight change ([1]; day 26): −38.9% | rate of body weight change ([1]; day 27): −36.8% | rate of body weight change ([1]; day 28): −37.9% | body weight reduced ([1]; high-fat food-induced-obesity mice, 10 nmol/kg, day 27): more than 20.0% | Concentration of fasting blood glucose [2, 4]: 14.77 ± 1.30 mmol/L | Concentration of random blood glucose [2, 4]: 20.42 ± 1.56 mmol/L | Concentration of fasting blood glucose ([2]; 10 nmol/kg s.c., Day 7, mean ± SD): 6.05 ± 0.42 mmol/L | Concentration of random blood glucose ([2]; 10 nmol/kg s.c., Day 10, mean ± SD): 20.66 ± 1.48 mmol/L | Concentration of fasting blood glucose ([2]; 10 nmol/kg s.c., Day 14, mean ± SD): 6.30 ± 0.46 mmol/L | Concentration of random blood glucose ([2]; 10 nmol/kg s.c., Day 17, mean ± SD): 18.91 ± 1.33 mmol/L | Concentration of fasting blood glucose ([2]; 10 nmol/kg s.c., Day 21, mean ± SD): 7.89 ± 0.81 mmol/L | Concentration of random blood glucose ([2]; 10 nmol/kg s.c., Day 24, mean ± SD): 21.17 ± 2.07 mmol/L | Concentration of fasting blood glucose ([2]; 10 nmol/kg s.c., Day 28, mean ± SD): 9.41 ± 0.97 mmol/L | Glycated hemoglobin ([2]; 10 nmol/kg s.c.): 4.71 ± 0.23 % | Concentration of fasting blood glucose [2, 5]: 14.13 ± 1.32 mmol/L | Concentration of random blood glucose [2, 5]: 16.73 ± 1.59 mmol/L | Concentration of fasting blood glucose ([2]; 30 nmol/kg s.c., Day 7, mean ± SD): 6.21 ± 0.26 mmol/L | Concentration of random blood glucose ([2]; 30 nmol/kg s.c., Day 10, mean ± SD): 15.88 ± 1.86 mmol/L | Concentration of fasting blood glucose ([2]; 30 nmol/kg s.c., Day 14, mean ± SD): 6.40 ± 0.57 mmol/L | Concentration of random blood glucose ([2]; 30 nmol/kg s.c., Day 17, mean ± SD): 17.30 ± 1.17 mmol/L | Concentration of fasting blood glucose ([2]; 30 nmol/kg s.c., Day 21, mean ± SD): 7.03 ± 0.52 mmol/L | Concentration of random blood glucose ([2]; 30 nmol/kg s.c., Day 24, mean ± SD): 17.43 ± 1.92 mmol/L | Concentration of fasting blood glucose ([2]; 30 nmol/kg s.c., Day 28, mean ± SD): 9.68 ± 1.03 mmol/L | Glycated hemoglobin ([2]; 30 nmol/kg s.c.): 4.53 ± 0.17 % | Concentration of fasting blood glucose [2, 6]: 14.67 ± 1.46 mmol/L | Concentration of random blood glucose [2, 6]: 9.11 ± 1.25 mmol/L | Concentration of fasting blood glucose ([2]; 100 nmol/kg s.c., Day 7, mean ± SD): 5.85 ± 0.33 mmol/L | Concentration of random blood glucose ([2]; 100 nmol/kg s.c., Day 10, mean ± SD): 12.34 ± 1.12 mmol/L | Concentration of fasting blood glucose ([2]; 100 nmol/kg s.c., Day 14, mean ± SD): 6.25 ± 0.32 mmol/L | Concentration of random blood glucose ([2]; 100 nmol/kg s.c., Day 17, mean ± SD): 11.89 ± 1.15 mmol/L | Concentration of fasting blood glucose ([2]; 100 nmol/kg s.c., Day 21, mean ± SD): 6.13 ± 0.19 mmol/L | Concentration of random blood glucose ([2]; 100 nmol/kg s.c., Day 24, mean ± SD): 11.51 ± 0.95 mmol/L | Concentration of fasting blood glucose ([2]; 100 nmol/kg s.c., Day 28, mean ± SD): 7.89 ± 0.41 mmol/L | Glycated hemoglobin ([2]; 100 nmol/kg s.c., listed as 18 #): 3.78% | Glycated hemoglobin ([2]; 100 nmol/kg s.c., listed as #18): 3.78 ± 0.13 % | viscera/brain ratio for fat mass, Epididymal fat ([3]; 3 nmol/kg): 254.6 ± 113.4 % | viscera/brain ratio for fat mass, Inguinal fat ([3]; 3 nmol/kg): 281.5 ± 140.1 % | viscera/brain ratio for fat mass, Mesenteric fat ([3]; 3 nmol/kg): 84.8 ± 41.3 % | viscera/brain ratio for fat mass, Perirenal fat ([3]; 3 nmol/kg): 159.2 ± 87.6 % | viscera/brain ratio for fat mass, Scapular fat ([3]; 3 nmol/kg): 48 ± 15.3% | viscera/brain ratio for fat mass, Subcutaneous fat ([3]; 3 nmol/kg): 129 ± 62 % | viscera/brain ratio for fat mass, Epididymal fat ([3]; 10 nmol/kg): 211.7 ± 80.7 % | viscera/brain ratio for fat mass, Inguinal fat ([3]; 10 nmol/kg): 194.4 ± 86.2 % | viscera/brain ratio for fat mass, Mesenteric fat ([3]; 10 nmol/kg): 53.3 ± 14.6 % | viscera/brain ratio for fat mass, Perirenal fat ([3]; 10 nmol/kg): 109.4 ± 57.1 % | viscera/brain ratio for fat mass, Scapular fat ([3]; 10 nmol/kg): 42.5 ± 17% | viscera/brain ratio for fat mass, Subcutaneous fat ([3]; 10 nmol/kg): 122 ± 73.2 % | viscera/brain ratio for fat mass, Epididymal fat ([3]; 100 nmol/kg): 102.9 ± 32.2 % | viscera/brain ratio for fat mass, Inguinal fat ([3]; 100 nmol/kg): 92 ± 34.5 % | viscera/brain ratio for fat mass, Mesenteric fat ([3]; 100 nmol/kg): 27.4 ± 11.1 % | viscera/brain ratio for fat mass, Perirenal fat ([3]; 100 nmol/kg): 46.6 ± 18.2 % | viscera/brain ratio for fat mass, Scapular fat ([3]; 100 nmol/kg): 32.3 ± 7% | viscera/brain ratio for fat mass, Subcutaneous fat ([3]; 100 nmol/kg): 57.1 ± 21.2 % | content of fat of each part (except scapular fat) relative to placebo ([3]; all dose test groups): significantly reduced

From patent publication US20260014232A1, “Pharmaceutical Composition of GLP-1 and GIP Receptor Dual Agonist and Use Thereof” (Jiangsu Hengrui Pharmaceuticals Co., Ltd., priority 2021, published 2026)
